Data on 8 compounds can be found in patent US11352338B2, “Substituted isoindolinones” (BioTheryX, Inc., priority 2018, dated 2022).

In one experiment the test system is IL-1β. The experiment can be described thus: IL-1β inhibition, LPS-induced PBMCs or CD14+ monocytes, Meso Scale assay. To be noted: LPS 100 ng/mL 18-24 h, read-out: % Inhibition compared to DMSO, IL-1β; for inhibition at 1 µM: tested at 1 μM; for inhibition at 10 µM: tested at 10 μM. It is filed as cell-based. The procedure, abridged:
(§1)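 Human PBMCs or CD14+ mobilized peripheral blood monocytes, 200,000 cells/well, pretreated 1 h with compound at 1 μM or 10 μM, then stimulated with 100 ng/mL LPS for 18-24 h. Supernatant IL-1β, IL-6 and TNFα measured by Meso Scale assay against DMSO controls.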

Another experiment concerns IL-6. Description: IL-6 inhibition, LPS-induced PBMCs or CD14+ monocytes, Meso Scale assay. To be noted: LPS 100 ng/mL 18-24 h, read-out: % Inhibition compared to DMSO, IL-6; for inhibition at 1 µM: tested at 1 μM; for inhibition at 10 µM: tested at 10 μM. It is filed as cell-based. The procedure, abridged: as §1
The next experiment deals with T1, CK1α (Homo sapiens, UniProt P48729+Q96SW2).
T1 construct: endogenous in cells; host or cells: MV-4-11
Description: Western blot, degradation of cellular CK1α in MV-4-11 cells. It is filed as cell-based. To be noted: MV4-11, tested at 1 μM, 6-8 hours, read-out: % Degradation compared to DMSO, CK1α. In a few lines: (§2)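 MV-4-11 cells at about 10^6 cells/mL treated with DMSO or compound for 6–8 h. RIPA whole-cell lysates probed by Western blot for PDE6D, Ikaros and CK1α, with β-actin, using fluorescent secondary detection. % degradation binned: A <25%, B 25–<50%, C 50–<75%, D ≥75%.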

In a further experiment the test system is TNFα. The experiment can be described thus: TNFα inhibition, LPS-induced PBMCs or CD14+ monocytes, Meso Scale assay. In kind it is cell-based. To be noted: LPS 100 ng/mL 18-24 h, read-out: % Inhibition compared to DMSO, TNFα; for inhibition at 1 µM: tested at 1 μM; for inhibition at 10 µM: tested at 10 μM. In a few lines:
as §1

The next experiment deals with T2, PDE6D (Homo sapiens, UniProt O43924+Q96SW2).
T2 construct: endogenous in cells; host or cells: MV-4-11
The experiment can be described thus: Western blot, degradation of cellular PDE6D in MV-4-11 cells. In kind it is cell-based. To be noted: for Dmax at 1 µM: MV4-11, tested at 1 μM, MV-4-11 cells, 6-8 hours, read-out: % Degradation compared to DMSO, PDE6D. The procedure, abridged: as §2
On the technique in general: Immunoblotting shows a protein as a band on a membrane.

Another experiment has as its system IL-2. The experiment can be described thus: IL-2 inhibition assay, anti-CD3 (OKT3) stimulated PBMCs, Mesoscale IL-2 analysis. In kind it is cell-based, human. The following applies: for fold induction at 1 µM / fold induction at 10 µM: Homo sapiens, PBMC, PBMCs on anti-CD3, 24 h, fold difference from DMSO control, read-out: IL-2, % Induction compared to DMSO. In a few lines:
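PBMCs (3-4 million cells/mL) were added with compound to plates precoated with 1 μg/mL anti-CD3 OKT3 and incubated 24 h. Supernatant IL-2 was quantified by Mesoscale, expressed as fold difference versus DMSO control and binned: A ≤0.5, B 0.5–1, C 1–<1.5, D ≥1.5.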

A further experiment addresses T3, Ikaros (Homo sapiens, UniProt Q13422+Q96SW2).
T3 construct: endogenous in cells; host or cells: MV-4-11
The experiment can be described thus: Western blot, degradation of cellular Ikaros in MV-4-11 cells. It is filed as cell-based. The following applies: MV4-11, tested at 1 μM, 6-8 hours, read-out: % Degradation compared to DMSO, Ikaros. The procedure, abridged:
as §2

Usually inhibition stands for how much of the control response was suppressed.

T1 sequence (P48729 whole entry): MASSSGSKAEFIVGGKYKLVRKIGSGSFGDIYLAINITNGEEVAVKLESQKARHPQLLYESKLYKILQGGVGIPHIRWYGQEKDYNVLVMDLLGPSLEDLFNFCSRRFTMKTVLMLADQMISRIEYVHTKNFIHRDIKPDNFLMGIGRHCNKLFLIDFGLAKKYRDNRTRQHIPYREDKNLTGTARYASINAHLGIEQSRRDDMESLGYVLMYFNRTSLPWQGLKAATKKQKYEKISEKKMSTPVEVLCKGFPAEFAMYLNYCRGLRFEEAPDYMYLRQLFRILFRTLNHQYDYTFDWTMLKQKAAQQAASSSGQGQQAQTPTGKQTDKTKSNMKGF
T1 sequence (Q96SW2 whole entry): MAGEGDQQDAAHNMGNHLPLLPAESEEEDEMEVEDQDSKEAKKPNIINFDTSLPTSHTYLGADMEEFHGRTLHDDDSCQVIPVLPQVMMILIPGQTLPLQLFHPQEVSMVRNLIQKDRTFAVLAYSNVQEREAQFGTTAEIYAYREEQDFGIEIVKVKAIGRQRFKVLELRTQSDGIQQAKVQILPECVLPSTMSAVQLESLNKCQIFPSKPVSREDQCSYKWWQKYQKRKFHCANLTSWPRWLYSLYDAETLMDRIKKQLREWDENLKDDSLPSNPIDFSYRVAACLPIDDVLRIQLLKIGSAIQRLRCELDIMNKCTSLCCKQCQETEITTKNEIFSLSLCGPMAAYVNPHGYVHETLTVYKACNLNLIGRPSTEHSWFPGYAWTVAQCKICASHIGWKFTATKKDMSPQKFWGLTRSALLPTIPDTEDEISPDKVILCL
T1 sequence (Q16531 whole entry partner): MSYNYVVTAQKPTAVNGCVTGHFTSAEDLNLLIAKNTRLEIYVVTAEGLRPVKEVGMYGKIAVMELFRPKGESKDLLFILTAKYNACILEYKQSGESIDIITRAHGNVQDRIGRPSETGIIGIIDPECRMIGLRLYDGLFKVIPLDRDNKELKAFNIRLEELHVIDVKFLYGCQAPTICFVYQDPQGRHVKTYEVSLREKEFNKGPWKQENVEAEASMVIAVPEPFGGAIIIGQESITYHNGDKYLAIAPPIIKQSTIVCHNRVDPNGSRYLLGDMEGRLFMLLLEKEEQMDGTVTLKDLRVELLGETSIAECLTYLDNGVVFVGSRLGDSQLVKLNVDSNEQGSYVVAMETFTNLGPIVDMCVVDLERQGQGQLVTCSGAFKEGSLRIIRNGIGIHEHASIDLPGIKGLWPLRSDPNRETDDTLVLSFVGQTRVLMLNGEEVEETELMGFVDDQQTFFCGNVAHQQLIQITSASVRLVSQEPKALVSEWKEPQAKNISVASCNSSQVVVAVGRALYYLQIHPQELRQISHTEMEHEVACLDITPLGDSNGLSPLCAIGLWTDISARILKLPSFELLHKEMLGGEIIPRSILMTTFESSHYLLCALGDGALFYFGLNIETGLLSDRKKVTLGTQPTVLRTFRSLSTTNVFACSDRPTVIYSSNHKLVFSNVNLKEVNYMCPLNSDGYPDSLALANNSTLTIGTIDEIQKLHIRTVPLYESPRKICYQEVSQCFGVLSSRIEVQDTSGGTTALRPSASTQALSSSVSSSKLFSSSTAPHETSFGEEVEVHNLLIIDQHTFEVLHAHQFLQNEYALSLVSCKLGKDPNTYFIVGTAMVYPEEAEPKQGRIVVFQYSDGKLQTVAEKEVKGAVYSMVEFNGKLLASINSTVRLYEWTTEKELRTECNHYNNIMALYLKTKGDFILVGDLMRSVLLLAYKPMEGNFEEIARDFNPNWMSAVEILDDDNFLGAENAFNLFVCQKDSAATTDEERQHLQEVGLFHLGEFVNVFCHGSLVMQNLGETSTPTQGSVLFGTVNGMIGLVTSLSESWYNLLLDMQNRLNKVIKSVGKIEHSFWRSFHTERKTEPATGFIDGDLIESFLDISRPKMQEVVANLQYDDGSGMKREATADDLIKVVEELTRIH
T2 sequence (O43924 whole entry): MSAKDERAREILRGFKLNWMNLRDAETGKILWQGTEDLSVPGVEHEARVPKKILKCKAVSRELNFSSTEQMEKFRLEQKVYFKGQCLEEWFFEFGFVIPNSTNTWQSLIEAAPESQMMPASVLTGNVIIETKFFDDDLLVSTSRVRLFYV
T2 sequence (Q96SW2 whole entry): as the sequence (Q96SW2 whole entry) above
T2 sequence (Q16531 whole entry partner): as the sequence (Q16531 whole entry partner) above
T3 sequence (Q13422 whole entry): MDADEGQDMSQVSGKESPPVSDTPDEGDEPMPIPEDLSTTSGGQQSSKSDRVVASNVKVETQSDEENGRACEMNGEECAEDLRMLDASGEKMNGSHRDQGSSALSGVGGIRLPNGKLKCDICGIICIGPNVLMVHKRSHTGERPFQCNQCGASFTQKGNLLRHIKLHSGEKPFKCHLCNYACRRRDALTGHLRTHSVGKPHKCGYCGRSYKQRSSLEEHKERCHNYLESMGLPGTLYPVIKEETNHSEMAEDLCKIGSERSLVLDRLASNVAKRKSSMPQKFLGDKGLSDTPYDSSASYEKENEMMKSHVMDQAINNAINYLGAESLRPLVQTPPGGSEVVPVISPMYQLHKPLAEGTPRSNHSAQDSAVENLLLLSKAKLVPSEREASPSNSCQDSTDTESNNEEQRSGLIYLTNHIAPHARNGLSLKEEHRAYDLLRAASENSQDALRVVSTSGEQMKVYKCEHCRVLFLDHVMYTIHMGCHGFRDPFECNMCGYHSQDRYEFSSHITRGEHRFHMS
T3 sequence (Q96SW2 whole entry): as the sequence (Q96SW2 whole entry) above
T3 sequence (Q16531 whole entry partner): as the sequence (Q16531 whole entry partner) above

`CC(C)c1cc(F)cc2c1CN(C1CCC(=O)NC1=O)C2=O` (stereo not drawn) [Compound 34, 3-(6-fluoro-4-isopropyl-1-oxoisoindolin-2-yl)piperidine-2,6-dione]: the inhibition at 1 µM is less than 10% in the experiment on IL-1β, less than 10% in the experiment on IL-6 and 25 to 50% with TNFα. The Dmax at 1 µM is 50 to 75% at CK1α, not below 75% on PDE6D and less than 25% at Ikaros. The fold induction at 1 µM with IL-2 was not above 0.5.
As for `O=C1CCC(N2Cc3c(cc(F)cc3C3CCCC3)C2=O)C(=O)N1` (stereo not drawn) [Compound 1], the inhibition at 1 µM in the experiment on IL-1β is 10 to 25%; with IL-6, less than 10%; in the experiment on TNFα, 25 to 50%. The inhibition at 10 µM in the experiment on IL-1β was 25 to 50%; in the experiment on IL-6, less than 10%; with TNFα it was 25 to 50%. Also, the figures for the Dmax at 1 µM on CK1α, at PDE6D and on Ikaros were not below 75%, not below 75% and 50 to 75%, respectively. Besides, the “% Degradation of PDE6D” value on PDE6D (1 μM, comparison with comparative compound A) is reported as “D (a % degradation value of equal to or more than 75% (value≥75%))”. Also, the “effect on IL-2 (in words)” value with IL-2 (10 μM) is given as “strong inhibition of IL-2 (downregulation)”. Also, the “IL-2, % Induction compared to DMSO” value in the experiment on IL-2 (10 μM, comparison with comparative compound B) was “A (a fold-change value of equal to or less than 0.5 (value≤0.5))”. Moreover, the fold induction at 1 µM with IL-2 was not above 0.5. For the same compound, in the experiment on IL-2 (10 μM), the fold induction at 10 µM was not above 0.5.
As for `COc1cc2c(c(C3CCCC3)c1)CN(C1CCC(=O)NC1=O)C2=O` (stereo not drawn) [Compound 14], the inhibition at 1 µM is less than 10% with IL-1β, less than 10% in the experiment with IL-6 and 10 to 25% in the experiment with TNFα. The inhibition at 10 µM in the experiment with IL-1β was 10 to 25%; in the experiment with IL-6, less than 10%; in the experiment with TNFα it was 25 to 50%. Moreover, the values for the Dmax at 1 µM on CK1α, on PDE6D and on Ikaros were 25 to 50%, 25 to 50% and 50 to 75%, respectively. Moreover, the fold induction at 1 µM in the experiment with IL-2 is 0.5 to 1. The fold induction at 10 µM in the experiment on IL-2 (10 μM) was 0.5 to 1.
`O=C1CCC(N2Cc3c(cc(F)cc3C3CCC3)C2=O)C(=O)N1` (stereo not drawn) [Compound 20]: the results for the inhibition at 1 µM in the experiment on IL-1β, in the experiment on IL-6 and with TNFα were less than 10%, less than 10% and 10 to 25%, respectively. The results for the inhibition at 10 µM in the experiment on IL-1β, with IL-6 and in the experiment on TNFα were less than 10%, less than 10% and 25 to 50%, respectively. Moreover, the Dmax at 1 µM at CK1α was 50 to 75%; on PDE6D it was not below 75%; at Ikaros, 25 to 50%. Moreover, the fold induction at 1 µM in the experiment with IL-2 is not above 0.5. In the experiment with IL-2 (10 μM), the fold induction at 10 µM was not above 0.5.
In the case of `C[C@H](c1cc(F)cc2c1CN(C1CCC(=O)NC1=O)C2=O)C(F)(F)F` (stereo partly drawn) [Compound 23], the inhibition at 1 µM with IL-1β, in the experiment with IL-6 and with TNFα was less than 10% each time. The inhibition at 10 µM is less than 10% in the experiment with IL-1β, less than 10% in the experiment with IL-6 and 25 to 50% in the experiment with TNFα. The Dmax at 1 µM on CK1α was 50 to 75%; on PDE6D it was 25 to 50%; on Ikaros, less than 25%. Further, the fold induction at 1 µM with IL-2 was 0.5 to 1. Also, the fold induction at 10 µM in the experiment on IL-2 (10 μM) is 0.5 to 1.
Turning to `CC1(C)CCCC1c1cc(F)cc2c1CN(C1CCC(=O)NC1=O)C2=O` (stereo not drawn) [Compound 26], the inhibition at 1 µM in the experiment on IL-1β, in the experiment with IL-6 and with TNFα was less than 10% in each case. Also, the inhibition at 10 µM in the experiment on IL-1β is less than 10%; in the experiment on IL-6, less than 10%; in the experiment on TNFα it was 10 to 25%. For the same compound, the figures for the Dmax at 1 µM at CK1α, on PDE6D and at Ikaros were less than 25%, 50 to 75% and 25 to 50%, respectively. Further, in the experiment with IL-2, the fold induction at 1 µM is 0.5 to 1. The fold induction at 10 µM with IL-2 (10 μM) lay within 0.5 to 1.
For `O=C1CCC(N2Cc3c(cc(F)cc3C3CC4CCC3C4)C2=O)C(=O)N1` (stereo not drawn) [Compound 25], the values for the inhibition at 1 µM in the experiment with IL-1β, in the experiment with IL-6 and in the experiment with TNFα were less than 10%, less than 10% and 10 to 25%, respectively. The inhibition at 10 µM in the experiment on IL-1β is 25 to 50%; with IL-6, less than 10%; in the experiment on TNFα it was 10 to 25%. Further, the Dmax at 1 µM at CK1α is 25 to 50%; at PDE6D, 50 to 75%; at Ikaros, 25 to 50%. The fold induction at 1 µM in the experiment with IL-2 lay in the range of 1 to 1.5. For the same compound, in the experiment on IL-2 (10 μM), the fold induction at 10 µM fell in the range of 0.5 to 1.
Take `O=C1CC(N2Cc3c(cc(F)cc3C3CCCC3)C2=O)C(=O)N1` (stereo not drawn) [Compound 19, 3-(4-Cyclopentyl-6-fluoro-1-oxoisoindolin-2-yl)pyrrolidine-2,5-dione]: the inhibition at 1 µM in the experiment on IL-1β, in the experiment on IL-6 and in the experiment on TNFα was less than 10% in each case. Besides, the inhibition at 10 µM in the experiment on IL-1β, in the experiment with IL-6 and with TNFα was less than 10% each time. Moreover, the Dmax at 1 µM on CK1α is less than 25%; at PDE6D, not below 75%; at Ikaros, less than 25%. Besides, the fold induction at 1 µM with IL-2 fell in the range of 0.5 to 1. In addition, in the experiment with IL-2 (10 μM), the fold induction at 10 µM lay within 0.5 to 1.
